{"source": "patent US20070149483A1", "about": "“Methods and compounds for modulating triglyceride and vldl secretion” (priority 2003, published 2007)", "key": {"[1]": {"test_system": "McA-RH7777 cells expressing human apoB100", "test": "Pulse-chase of [35S]apoB100 with rate flotation of conditioned medium and microsomal lumen", "format": "cell-based, rat", "details": "30 min pulse, end of 1-h chase", "experimental": "Cell Culture and Fatty Acid Treatments—Transfected McA-RH7777 cells stably expressing human apoB100 (McLeod et al., 1994, J. Biol. Chem. 269, 2852-2862) were cultured in Dulbecco's modified Eagle's medium (DMEM) containing 10% fetal bovine serum (FBS), 10% horse serum and 200 μg/ml G418. Routinely, the cells were incubated with 0.4 mM fatty acids for 16-18 h in the presence of 20% FBS prior to experiments."}, "[2]": {"test_system": "McA-RH7777 cells stably expressing human apoB100", "test": "Transmission electron microscopy morphometry of lipid/lipoprotein particles in Golgi and GAV", "format": "cell-based, rat", "details": "for relative occurrence of particle type in the GAV: n=221; for relative occurrence of particle type in trans-Golgi saccules 4-6+TGN/secretory vesicles: n=284", "experimental": "The samples were processed for transmission electron microscopy as previously described (Tran et al., 2002). Single and serial thin sections (silver-gold interference colors) were visualized in a Hitachi H-7000 transmission electron microscope, and captured at a range of negative magnifications (8,000-120,000 times). Panoramic tiling was used to capture large fields. The 3D model was prepared from Golgi fields from 7 consecutive serial images (positive magnification=70,000 times), by the method previously described (Thorne-Tjomsland et al., 1998, Anat. Rec. 250, 381-396), with the following modifications. The serial fields were scanned into Adobe Photoshop 5.5 of an Imac 700 MHz G4 computer. Alignment of consecutive sections by fiducial markers was carried out prior to object-contouring and -separation. Concatenation and volume rendering were done in Synu on an SGI-OS 2, and image capture was with Photoshop on a Macintosh platform. The diameter of electron-dense particles, which represent a combination of lipoprotein particles and lipid droplets, were measured in 40 randomly selected Golgi regions from EPA-treated cells. Negative magnification was 40,000 times and positives were further magnified three times. Measurements were from positives, using a digital caliper [technical specifications in required range (0-150 mm on positive): max resolution=0.01 mm; accuracy=0.02 mm; repeatability=0.01 mm]. The precision in our system was tested by measuring the diameters of each of two electron-dense particles (20 nm and 40 nm diameter) 40 times; SD for the average converted measurements was <1 nm. Criteria for selecting Golgi, establishing cis-trans polarity, and measuring lipid/lipoprotein particles were as described (Tran et al., 2002). Lipid/lipoprotein particles were classified as membrane-associated if directly apposed to the lumenal Golgi leaflet or with a membrane diverging from this, otherwise as lumenal."}, "[3]": {"test_system": "McA-RH7777 cells stably expressing human apoB100", "test": "Pulse-chase with subcellular fractionation: membrane-associated apoB100 trafficking", "format": "cell-based, rat", "details": "20 min pulse", "experimental": "The cells were then incubated with chase medium for 15, 30 and 45 min. At the end of each chase time, the medium was collected and subjected to cumulative rate flotation centrifugation (Wang et al., 1999) to resolve apoB100-VLDL1 (Sf>100) and apoB100-VLDL2 (Sf 20-100) from other lipoproteins (i.e. IDL, LDL and HDL). The ^35S-apoB100 in each fraction was recovered by immunoprecipitation. Also, at the end of each chase time, the radiolabeled cells were harvested in 2 ml of ice-cold homogenization buffer (10 mM Tris-HCl, pH 7.4, 250 mM sucrose, 5 mM EDTA, and serine/cysteine protease inhibitor mixture), mixed with two 100-mm dishes of unlabeled cells, homogenized by passing ten times through a ball-bearing homogenizer, and subjected to subcellular fractionation and carbonate-treatment as described below. […]\nAnalysis of ApoB100 Associated with Membranes and Lumenal Contents of Microsomes—Lumenal contents were separated from membranes by sodium carbonate treatment followed by centrifugation (Tran et al., 2002). The ^35S-labelled apoB100 proteins associated with the membrane and lumen were recovered by immunoprecipitation and analyzed by SDS-PAGE/fluorography as previously described (Tran et al., 2002). […]"}, "[4]": {"test_system": "McA-RH7777 cells stably expressing human apoB100", "test": "Immunofluorescent localization of apoB and Map1LC3", "format": "cell-based, rat", "details": "0.4 mM, 4 h, in comparison to controls", "procedure": "Cells were permeabilized with 1% Triton X-100 in blocking buffer (10% FBS in PBS) for 30 min and probed with primary antibodies, i.e., monoclonal antibody 1D1 (1:1000) for human apoB and polyclonal antibody against rat Map1LC3 (1:200) for 1 h. Cells were then incubated with a mixture of secondary antibodies (1:200), i.e., of goat anti-mouse IgG conjugated with Alexa Fluor™488 (green) and goat anti-rabbit IgG conjugated with Alexa Fluor™594 (red) for 1 h. The coverslips were mounted onto glass slides using SlowFade AntiFade kits (Molecular Probes) and the images were captured by an MRC-1024 laser scanning confocal imaging system. […] The secondary antibody for apoB was conjugated with Alexa Fluor™488 (green), and that for Map1LC3 was conjugated with Alexa Fluor™594 (red)."}, "[5]": {"test_system": "McA-RH7777 cells stably expressing human apoB100", "details": "Tran et al., 2002, cited from earlier work"}, "McA-RH777 cells": {"test_system": "McA-RH777 cells", "details": "oleate-treated cells; cited from earlier work"}}}
{"smiles": "CC/C=C\\C/C=C\\C/C=C\\C/C=C\\C/C=C\\CCCC(=O)O", "note": "[EPA, eicosapentaenoic acid]", "values": [{"measurement": "increase of [^35S]-apoB100 in fractions of high density (IDL and LDL) in the microsomal lumen", "setting": "[1]; vs oleate", "result": "six-fold"}, {"measurement": "decrease of [^35S]-apoB100 in VLDL (VLDL1 and VLDL2) in the media, as compared to oleate-treatment", "setting": "[1]; 16 h pretreatment", "result": 50, "unit": "%"}, {"measurement": "average size of Type I particles in the cis-most Golgi saccule", "setting": "[2]; EPA-treated cells", "result": 100, "unit": "nm"}, {"measurement": "average size of Type V particles", "setting": "[2]; EPA-treated cells", "result": 54.5, "unit": "nm"}, {"measurement": "sizes of Type V particles in the Golgi", "setting": "[2]; EPA-treated cells", "result": "25-75 nm"}, {"measurement": "Percent membrane association of particles", "setting": "[2]; Type I, GAV", "result": 33, "unit": "%"}, {"measurement": "Percent membrane association of particles", "setting": "[2]; Type I, Golgi saccule 1", "result": 100, "unit": "%"}, {"measurement": "Percent membrane association of particles", "setting": "[2]; Type I, Golgi saccule 2", "result": 84, "unit": "%"}, {"measurement": "Percent membrane association of particles", "setting": "[2]; Type I, Golgi saccule 3", "result": 80, "unit": "%"}, {"measurement": "Percent membrane association of particles", "setting": "[2]; Type I, Golgi saccules 4-6", "result": 73, "unit": "%"}, {"measurement": "Percent membrane association of particles", "setting": "[2]; Type I, TGN and secretory", "result": 56, "unit": "%"}, {"measurement": "relative occurrence of particle type in the GAV", "setting": "[2]; Type I", "result": 12, "unit": "%"}, {"measurement": "relative occurrence of particle type in trans-Golgi saccules 4-6+TGN/secretory vesicles", "setting": "[2]; Type I", "result": 12, "unit": "%"}, {"measurement": "Percent membrane association of particles", "setting": "[2]; Type II, GAV", "result": 25, "unit": "%"}, {"measurement": "Percent membrane association of particles", "setting": "[2]; Type II, Golgi saccule 1", "result": 100, "unit": "%"}, {"measurement": "Percent membrane association of particles", "setting": "[2]; Type II, Golgi saccule 2", "result": 83, "unit": "%"}, {"measurement": "Percent membrane association of particles", "setting": "[2]; Type II, Golgi saccule 3", "result": 75, "unit": "%"}, {"measurement": "relative occurrence of particle type in the GAV", "setting": "[2]; Type II", "result": 2, "unit": "%"}, {"measurement": "relative occurrence of particle type in trans-Golgi saccules 4-6+TGN/secretory vesicles", "setting": "[2]; Type II", "result": 4, "unit": "%"}, {"measurement": "Percent membrane association of particles", "setting": "[2]; Type III, GAV", "result": 46, "unit": "%"}, {"measurement": "Percent membrane association of particles", "setting": "[2]; Type III, Golgi saccule 1", "result": 100, "unit": "%"}, {"measurement": "Percent membrane association of particles", "setting": "[2]; Type III, Golgi saccule 2", "result": 83, "unit": "%"}, {"measurement": "Percent membrane association of particles", "setting": "[2]; Type III, Golgi saccule 3", "result": 83, "unit": "%"}, {"measurement": "Percent membrane association of particles", "setting": "[2]; Type III, Golgi saccules 4-6", "result": 82, "unit": "%"}, {"measurement": "Percent membrane association of particles", "setting": "[2]; Type III, TGN and secretory", "result": 73, "unit": "%"}, {"measurement": "relative occurrence of particle type in the GAV", "setting": "[2]; Type III", "result": 11, "unit": "%"}, {"measurement": "relative occurrence of particle type in trans-Golgi saccules 4-6+TGN/secretory vesicles", "setting": "[2]; Type III", "result": 13, "unit": "%"}, {"measurement": "Percent membrane association of particles", "setting": "[2]; Type IV, GAV", "result": 45, "unit": "%"}, {"measurement": "Percent membrane association of particles", "setting": "[2]; Type IV, Golgi saccules 4-6", "result": 50, "unit": "%"}, {"measurement": "Percent membrane association of particles", "setting": "[2]; Type IV, TGN and secretory", "result": 20, "unit": "%"}, {"measurement": "Percent membrane association of particles", "setting": "[2]; Type IV, combined Golgi saccules 1-3", "result": 67, "unit": "%"}, {"measurement": "relative occurrence of particle type in the GAV", "setting": "[2]; Type IV", "result": 5, "unit": "%"}, {"measurement": "relative occurrence of particle type in trans-Golgi saccules 4-6+TGN/secretory vesicles", "setting": "[2]; Type IV", "result": 5, "unit": "%"}, {"measurement": "Percent membrane association of particles", "setting": "[2]; Type V, GAV", "result": 42, "unit": "%"}, {"measurement": "Percent membrane association of particles", "setting": "[2]; Type V, Golgi saccule 1", "result": 96, "unit": "%"}, {"measurement": "Percent membrane association of particles", "setting": "[2]; Type V, Golgi saccule 2", "result": 83, "unit": "%"}, {"measurement": "Percent membrane association of particles", "setting": "[2]; Type V, Golgi saccule 3", "result": 66, "unit": "%"}, {"measurement": "Percent membrane association of particles", "setting": "[2]; Type V, Golgi saccules 4-6", "result": 64, "unit": "%"}, {"measurement": "Percent membrane association of particles", "setting": "[2]; Type V, TGN and secretory", "result": 66, "unit": "%"}, {"measurement": "relative occurrence of particle type in the GAV", "setting": "[2]; Type V", "result": 70, "unit": "%"}, {"measurement": "relative occurrence of particle type in trans-Golgi saccules 4-6+TGN/secretory vesicles", "setting": "[2]; Type V", "result": 66, "unit": "%"}]}
{"smiles": "CCCCCCCC/C=C\\CCCCCCCC(=O)O", "note": "[Oleate, oleic acid]", "values": [{"measurement": "rate at which the membrane-associated [^35S]-apoB100 exited the ER", "setting": "[3]; chase 0, 15, 30 and 45 min", "result": "−0.59±0.17 % of total/min"}, {"measurement": "rate at which the membrane-associated [^35S]-apoB100 appeared in the distal Golgi", "setting": "[3]; chase 0-45 min", "result": "0.39±0.11 % of total/min"}, {"measurement": "autophagy (penetration of Map1LC3 staining into the apoB100-rich perinuclear area, partial co-localization with apoB100)", "setting": "[4]", "result": "induced autophagy"}, {"measurement": "size of lipoprotein particles detected in oleate-treated cells", "setting": "[5]", "result": 40, "unit": "nm"}, {"measurement": "average diameters of lipoproteins in Golgi saccules 1-6", "setting": "[5]; oleate-treated McArdle cells", "result": "40±17", "unit": "nm"}, {"measurement": "share of total secreted TG carried by VLDL particles", "setting": "McA-RH777 cells", "result": "> 80", "unit": "%"}, {"measurement": "share of total secreted apoB100 carried by VLDL particles", "setting": "McA-RH777 cells", "result": "< 10", "unit": "%"}]}
